{"source": "patent US10391150B2", "about": "“Treatments for migraine and related disorders” (The University of Chicago, priority 2011, dated 2019)", "key": {"[1]": {"system": "spreading depression (SD) in hippocampal slice cultures", "experiment": "Spreading depression (SD) threshold / susceptibility in hippocampal slice cultures", "type": "cell-based, rat", "description": "FIGS. 2A-2E. […] (FIG. 2A) Experiments begin with determination of the current needed to maximize standard CA3 area field potential responses. Half-maximal intensity is then used to elicit CA3 area evoked field potentials from dentate gyrus bipolar electrical stimulation. This documents the normalcy of evoked synaptic responses between preparations. If a slice's field excitatory post synaptic potentials are not at least 3 mV, slices are discarded. Next, field potential trains (i) are noted to verify that preparations are healthy enough to follow 10 Hz stimulation (e.g., amplitudes of vertical deviations in fast potential records are similar) and the current needed to trigger SD (ii) is registered (Pusic and Kraig, 2010).\n(FIG. 8a) Exemplary CA3 area evoked field potential. Experiments begin with establishment of the current intensity needed to evoke maximal field potential responses; stimuli of half-maximal intensity were then used to elicit subsequent field potentials. Only those cultures with CA3 pyramidal neuron post-synaptic responses of at least 3 mV were used for experiments. (FIG. 8b) CA3 response to dentate gyrus bipolar stimulation (10 pulses at 10 Hz, 500 μA) was used to elicit a spreading depression (SD), as shown in (FIG. 8c). (FIG. 8c) The spreading depression (SD) shown here was induced by the stimulation/response (arrow) shown in (FIG. 8b). […] Comparisons between groups made via Student's t-test.\nThe inventors induced SD trans-synaptically in rat HSC using electrical stimuli (100 μs pulses @ 10 Hz for 1 s) ranging from 1 to 10,000 nC in order to determine SD threshold in sham and experimental groups (Pusic et al., 2011). Results were based on n≥3-6/group. […] This insulin dose approximates the pharmacological levels seen in humans treated with nasal insulin.\nSlice cultures were prepared and maintained as previously described (Mitchell et al., 2010a,). After 18 days in vitro (DIV), slice cultures were transferred to serum-free media that included additional calcium and magnesium. Cultures were screened at 21 DIV to ensure no pyramidal neuron death was present. Standard electrophysiological recordings were performed by placing a slice culture insert in a PDMI recording chamber with controlled temperature and pH (FIG. 1). The recording chamber was aerated with 5% CO2-balance air at 36° C. and media flowing at 1.2 mL/min or was held static around the slice culture insert. A recording electrode was placed at the CA3 pyramidal cell layer and a stimulating electrode was placed at the surface of the dentate gyrus. Recordings were initiated prior to placing the stimulating electrode on the culture to ensure no spreading depression was triggered as a result.\nStudies began with determination of the current needed to maximize standard CA3 area field potential responses. This documented the normalcy of evoked synaptic responses between preparations. If a slice's field EPSPs were not at least 3-4 mV, it was discarded.\nNext, trans-synaptically evoked SD was determined. Here, the inventors stimulated slices via the dentate gyrus with 100 μs pulses delivered at 10 Hz for 1 sec every 1-2 minutes at increasing μA current intensities until SD occurred.\nSlice cultures are prepared, maintained, and induced to fire SD as previously described using trans-synaptic excitation of CA3, where SD is initiated (FIG. 4) (Kunkler et al., 2005; Pusic et al., 2011)."}, "[2]": {"system": "SD in neocortex and hippocampus of anesthetized rat", "experiment": "SD threshold in vivo (0.5 M KCl injection) after nasal administration", "conditions": "control 1-8 nL", "method": "Images show experimental setups for nasal administration and testing. (FIG. 7A) Nasal injection setup showing heat lamp and thermo-regulator that maintains temperature at 37° C. plus nose cone used to deliver isoflurane anesthesia. (FIG. 7B) Operator is shown administering nasal IGF-1 solution, which is performed in a fume hood to adequately vent isoflurane from nose cone. (FIG. 7C) Image illustrates standard electrophysiology setup. Anesthetized animal is placed into a standard electrophysiology holder and anesthesia maintained by a nose cone delivering 3% isoflurane in oxygen. Arterial oxygen saturation is monitored with a pulse-oximeter. Animals are warmed to 37.5° C. with a heating plate. SD is induced by progressively injecting larger volumes of 0.5 M KCl from an 8 μm diameter microelectrode. SD is registered with a second microelectrode used for DC recordings placed more caudally. After SD is evoked by a given injection pulse, the stimulating electrode is withdrawn and a volume re-injected under mineral oil. The diameter of the resultant KCl injection sphere is then measured off line using a compound microscope and the injection volume calculated. For example, in the above whole animal experiments it took 1-8 nL of 0.5 M KCl to evoke SD in control brain regions while after acute IGF-1 this amount rose to 67-109 nL. A day after IGF-1 treatment the volume needed to evoked SD was 34-48 nL. IFN-γ treatment required 338 nL of 0.5 M KCl a day after treatment and IL-11 required 67-200 nL.\nRats (FIGS. 6 and 7) are anesthetized with inhalational isoflurane and kept warm. While anesthetized, animals are placed in a supine position and 50 μL of sterile drug (i.e., IFN-γ, IGF-1, or IL-11) solution [or sterile saline vehicle (sham control)] is administered nasally by delivering 5 μL alternating between the left and right naris every 2 min over 20 minutes. Animals are given nasal drug treatments daily at the same time for 7 days before subsequent experiments. Doses for all 3 agents begin with the effective doses noted in our work using slice cultures (1×), then include others (0.1× and 10×). The inventors base this strategy on the fact that the effective culture dose for IGF-1 (40 ng/mL) closely approximates the dose used in vivo (143 μg/kg).\nThis approach was applied to measurement of SD threshold (FIG. 10) after treatment (FIG. 7) with nasally administered IGF-1 (150 μg), IL-11 (1 μg), IFN-γ (50,000 units), and insulin (20 μg). […] Resistance against SD was always greater in hippocampus compared to neocortex (n=4, controls; n=3, acutely after IGF-1; n=6, one day after IGF-1; n=6, one day after IL-11; n=6, one day after IFN-γ; and n=3, acutely after insulin).\nNasal administration followed by SD threshold evaluation in vivo. Vehicle or human recombinant IGF-1 (150 μg) is administered intranasally. SD threshold is established by injection of nanoliter volumes of 0.5 M KCl into neocortex or hippocampus (−2.0 mm from Bregma and 1.5 mm lateral from midline at either 750 μm or 2,800 μm into brain, respectively) using a thin-walled glass pipette and Picospritzer. Once a threshold is established, it is confirmed two more times, with an exemplary record from a vehicle-sham animal shown below. […] The diameter of the injected sphere is then measured using a compound microscope and used to calculate the injected volume, then moles of potassium. […]"}, "[3]": {"conditions": "a day after nasal treatment (IGF-1 150 μg; IL-11 1 μg; IFN-γ 50,000 units)"}}}
{"molecule": "Insulin-like growth factor 1 [IGF-1]", "values": [{"measurement": "increase of SD threshold compared to control", "setting": "[1]; 3-day exposure to IGF-1", "value": 75, "unit": "fold"}, {"measurement": "increase of SD threshold compared to control", "setting": "[1]; 7-day phasic exposure to IGF-1 (12 hours a day)", "value": 22, "unit": "fold"}, {"measurement": "increase of SD threshold compared to control", "setting": "[1]; acute (15-30 min) exposure to IGF-1", "value": 24, "unit": "fold"}, {"measurement": "relative SD threshold levels", "setting": "[1]; coincubation with ascorbate and IGF-1 versus IGF-1 alone", "value": "1.00±0.31"}, {"measurement": "volume of 0.5 M KCl needed to evoke SD", "setting": "[2]; [3]", "value": "34 to 48", "unit": "nL"}, {"measurement": "volume of 0.5 M KCl needed to evoke SD", "setting": "[2]; acutely after nasal treatment (IGF-1 150 μg; insulin 20 μg)", "value": "67 to 109", "unit": "nL"}]}
{"molecule": "Interferon-gamma (protein, listed as Homo sapiens) MKYTSYILAFQLCIVLGSLGCYCQDPYVKEAENLKKYFNAGHSDVADNGTLFLGILKNWKEESDRKIMQSQIVSFYFKLFKNFKDDQSIQKSVETIKEDMNVKFFNSNKKKRDDFEKLTNYSVTDLNVQRKAIHELIQVMAELSPAAKTGKRKRSQMLFRGRRASQ", "values": [{"measurement": "susceptibility to SD", "setting": "[1]; IFN-γ 500 U/mL, at 1 day", "value": "significantly increased susceptibility to SD"}, {"measurement": "volume of 0.5 M KCl needed to evoke SD", "setting": "[2]; [3]", "value": 338, "unit": "nL"}]}
